ChEMBL document CHEMBL1201862, “PubChem BioAssay data set” (2004)
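Dose response: 5 concentrations. Exposure: 48 h. Format: 96-well plates. Endpoint: linear interpolation; highest concentration if not reached. Here, GI50 denotes the concentration required for 50% inhibition of growth.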 Activity calls are given as the source filed them. No stated cut-off is given here; in the data, active = GI50 up to about 1.1 µM and inactive = higher.

Assays:
Test in all cases: growth of human tumour cells (NCI), 48 h
NCI-H23 = system: NCI-H23
HCT-15 = system: HCT-15
HOP-62 = system: HOP-62
HOP-92 = system: HOP-92
OVCAR-5 = system: OVCAR-5
SK-MEL-5 = system: SK-MEL-5
KM12 = system: KM12
SW-620 = system: SW-620
EKVX = system: EKVX
RXF 393 = system: RXF 393
NCI-H522 = system: NCI-H522
HCT-116 = system: HCT-116
Malme-3M = system: Malme-3M
COLO 205 = system: COLO 205
SK-OV-3 = system: SK-OV-3
NCI-H460 = system: NCI-H460
OVCAR-4 = system: OVCAR-4

Row | Structure (SMILES) | GI50 (NCI-H23) | GI50 (HCT-15) | GI50 (HOP-62) | GI50 (HOP-92) | GI50 (OVCAR-5) | GI50 (SK-MEL-5) | GI50 (KM12) | GI50 (SW-620) | GI50 (EKVX) | GI50 (RXF 393) | GI50 (NCI-H522) | GI50 (HCT-116) | GI50 (Malme-3M) | GI50 (COLO 205) | GI50 (SK-OV-3) | GI50 (NCI-H460) | GI50 (OVCAR-4)
1 | N#CC1=C(Cl)NC(Cl)=C(C#N)C1c1c(Cl)cccc1Cl | 35.9 µM (inactive) | 16.2 µM | 48.2 µM (inactive) | 21.4 µM (inactive) | > 100 µM (inactive) | 21.5 µM (inactive) | 21.8 µM (inactive) | 14 µM (inactive) | 49.8 µM (inactive) | 22.6 µM (inactive) | 17.2 µM (inactive) | 18.7 µM (inactive) | 46 µM (inactive) | 17.5 µM (inactive) | 29.7 µM (inactive) | 18.4 µM (inactive) | –
2 | Nc1nc2c(-c3ccc([N+](=O)[O-])cc3)nnn2c2ccccc12 | 37.2 µM (inactive) | > 100 µM | 56.5 µM (inactive) | > 100 µM (inactive) | > 100 µM (inactive) | – | > 100 µM (inactive) | > 100 µM (inactive) | > 100 µM (inactive) | – | – | – | > 100 µM (inactive) | > 100 µM (inactive) | 51.4 µM (inactive) | > 100 µM (inactive) | > 100 µM (inactive)
3 | C=C(/C=C/C=C(\CO)CCC=C(C)C)[C@H]1CCC2([C@H](CCCO)/C(=C(/C)C=O)CC[C@]2(C)O)[C@H]1O (stereo partly drawn) | > 100 µM (inactive) | > 100 µM | 75.9 µM (inactive) | 3.56 µM (inactive) | > 100 µM (inactive) | > 100 µM (inactive) | > 100 µM (inactive) | > 100 µM (inactive) | 83.8 µM (inactive) | – | – | > 100 µM (inactive) | > 100 µM (inactive) | 26.3 µM (inactive) | > 100 µM (inactive) | 56.8 µM (inactive) | > 100 µM (inactive)
4 | C[C@]12CCC(=O)C=C1CC[C@@H]1C2CC[C@]2(C)c3nn(-c4ccccc4)nc3CC12 (stereo partly drawn) | > 100 µM (inactive) | > 100 µM | > 100 µM (inactive) | > 100 µM (inactive) | > 100 µM (inactive) | > 100 µM (inactive) | > 100 µM (inactive) | > 100 µM (inactive) | > 100 µM (inactive) | > 100 µM (inactive) | – | > 100 µM (inactive) | > 100 µM (inactive) | > 100 µM (inactive) | > 100 µM (inactive) | > 100 µM (inactive) | > 100 µM (inactive)
5 | COC1OC(CO)C(O)C(OC(C)=O)C1NC(=O)N(CCCl)N=O (stereo not drawn) | > 100 µM (inactive) | – | – | – | > 100 µM (inactive) | > 100 µM (inactive) | > 100 µM (inactive) | > 100 µM (inactive) | > 100 µM (inactive) | > 100 µM (inactive) | > 100 µM (inactive) | > 100 µM (inactive) | > 100 µM (inactive) | > 100 µM (inactive) | > 100 µM (inactive) | 83.6 µM (inactive) | > 100 µM (inactive)
6 | O=S(O)CCCCSSCCCCSSCCCCS(=O)O | 36 µM (inactive) | 42.7 µM | – | – | > 100 µM (inactive) | 10.7 µM (inactive) | 76 µM (inactive) | 24.4 µM (inactive) | 6.38 µM (inactive) | 27.2 µM (inactive) | 13 µM (inactive) | > 100 µM (inactive) | 15.8 µM (inactive) | 22.6 µM (inactive) | > 100 µM (inactive) | 53.1 µM (inactive) | 16 µM (inactive)
7 | CC1(C)CC23C(=O)N(c4ccccc4)C(Nc4ccccc4)=NC2=CC(C#N)=C(C#N)C3O1 (stereo not drawn) | 34.9 µM (inactive) | 64.9 µM | 82 µM (inactive) | 11.2 µM (inactive) | > 100 µM (inactive) | 28.1 µM (inactive) | 46.6 µM (inactive) | 37.7 µM (inactive) | > 100 µM (inactive) | 15.2 µM (inactive) | 20.1 µM (inactive) | 89.5 µM (inactive) | 46.3 µM (inactive) | 39.9 µM (inactive) | – | 43.8 µM (inactive) | 22.6 µM (inactive)
8 | CCN1CC2(C)CC[C@@H](OC)C34[C@@H]2[C@H](OC(C)=O)C2(OCO[C@@]25C[C@H](OC)C2C[C@]3(O)[C@@H]5[C@H]2O)[C@H]14 | > 100 µM (inactive) | – | 82.6 µM (inactive) | > 100 µM (inactive) | > 100 µM (inactive) | – | > 100 µM (inactive) | > 100 µM (inactive) | > 100 µM (inactive) | 15.8 µM (inactive) | > 100 µM (inactive) | > 100 µM (inactive) | > 100 µM (inactive) | > 100 µM (inactive) | – | > 100 µM (inactive) | > 100 µM (inactive)
9 | COc1ccc2ccccc2c1C1OC(=O)c2ccccc21 (stereo not drawn) | > 100 µM (inactive) | > 100 µM | > 100 µM (inactive) | > 100 µM (inactive) | > 100 µM (inactive) | > 100 µM (inactive) | 56.6 µM (inactive) | 87.9 µM (inactive) | > 100 µM (inactive) | – | 63.5 µM (inactive) | – | > 100 µM (inactive) | > 100 µM (inactive) | > 100 µM (inactive) | – | 82.8 µM (inactive)
10 | Cc1ccccc1NC(=O)C(=O)CC(=O)c1c(C)[n+]([O-])c2ccccc2[n+]1[O-] | > 100 µM (inactive) | > 100 µM | > 100 µM (inactive) | – | > 100 µM (inactive) | – | 59.8 µM (inactive) | > 100 µM (inactive) | > 100 µM (inactive) | > 100 µM (inactive) | – | > 100 µM (inactive) | > 100 µM (inactive) | > 100 µM (inactive) | > 100 µM (inactive) | > 100 µM (inactive) | 76.9 µM (inactive)
11 | CC(=O)Nc1ccc(/C=N\N2C(=O)c3ccccc3C2=O)cc1 | > 100 µM (inactive) | > 100 µM | > 100 µM (inactive) | > 100 µM (inactive) | > 100 µM (inactive) | > 100 µM (inactive) | > 100 µM (inactive) | > 100 µM (inactive) | > 100 µM (inactive) | > 100 µM (inactive) | – | > 100 µM (inactive) | > 100 µM (inactive) | – | – | > 100 µM (inactive) | > 100 µM (inactive)
12 | Cc1cccc(NC(=O)/C(=N\NC(C)(C)C)C2NC(=S)NC2=O)c1C (stereo not drawn) | – | > 100 µM | > 100 µM (inactive) | – | > 100 µM (inactive) | > 100 µM (inactive) | > 100 µM (inactive) | > 100 µM (inactive) | 59.6 µM (inactive) | – | – | > 100 µM (inactive) | > 100 µM (inactive) | > 100 µM (inactive) | > 100 µM (inactive) | > 100 µM (inactive) | > 100 µM (inactive)
13 | CC1=NN(C(=O)Cc2ccccc2)C(=O)/C1=C/c1c(O)ccc2ccccc12 | 61.7 µM (inactive) | 2.21 µM | > 100 µM (inactive) | – | 35.8 µM (inactive) | 96.6 µM (inactive) | 68.5 µM (inactive) | 39.4 µM (inactive) | > 100 µM (inactive) | – | 67.9 µM (inactive) | 49.1 µM (inactive) | 15.8 µM (inactive) | > 100 µM (inactive) | – | 69 µM (inactive) | 78.9 µM (inactive)
